Source: the supplement of paper PMC5908809

Tests used:
[1] = test system: DERL-7 (IL-2 2.5 ng/mL); assay: percent inhibition of viability; higher = more inhibition; conditions: 72 h
[2] = test system: KHYG-1 (IL-2 2.5 ng/mL); assay: as above; conditions: 72 h
[3] = test system: normal primary NK cells, pool 2 (3 donors) (IL-2 2.5 ng/mL); assay: as above; conditions: 72 h
[4] = test system: SNK-6 (IL-2 2.5 ng/mL); assay: as above; conditions: 72 h
[5] = test system: NK-YS (IL-2 2.5 ng/mL); assay: as above; conditions: 72 h
[6] = test system: IMC-1 (IL-2 20 ng/mL); assay: as above; conditions: 72 h
[7] = test system: normal primary NK cells, pool 1 (3 donors), resting (IL-2 0 ng/mL); assay: as above; conditions: 72 h
[8] = test system: YT (IL-2 2.5 ng/mL); assay: as above; conditions: 72 h
[9] = test system: normal primary NK cells, pool 1 (3 donors) (IL-2 2.5 ng/mL); assay: as above; conditions: 72 h
[10] = test system: KAI3 (IL-2 2.5 ng/mL); assay: as above; conditions: 72 h
[11] = test system: normal primary NK cells, pool 3 (3 donors) (IL-2 2.5 ng/mL); assay: as above; conditions: 72 h
[12] = test system: NK-92 (IL-2 2.5 ng/mL); assay: as above; conditions: 72 h
[13] = test system: NKL (IL-2 2.5 ng/mL); assay: as above; conditions: 72 h
[14] = test system: normal NK cells expanded with K562-aAPC; assay: drug sensitivity score (DSS) (DSS units); higher = more sensitive; extreme values may be limits of the assay; conditions: 72 h; IL-2 2.5 ng/mL
Protocol: (§1)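 Drug sensitivity and resistance testing on K562-aAPC-expanded normal NK cells: 5 concentrations (10-fold steps over a 10,000-fold range), 72 h at 37 °C, viability by CellTiter-Glo normalised to DMSO and benzethonium chloride controls; DSS from the fitted curve.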

[15] = test system: DERL-7 (IL-2 2.5 ng/mL); assay: as above; conditions: 72 h
[16] = test system: KHYG-1 (IL-2 2.5 ng/mL); assay: as above; conditions: 72 h
[17] = test system: normal primary NK cells, pool 2 (3 donors) (IL-2 2.5 ng/mL); assay: as above; conditions: 72 h
[18] = test system: SNK-6 (IL-2 2.5 ng/mL); assay: as above; conditions: 72 h
[19] = test system: NK-YS (IL-2 2.5 ng/mL); assay: as above; conditions: 72 h
[20] = test system: IMC-1 (IL-2 20 ng/mL); assay: as above; conditions: 72 h
[21] = test system: normal primary NK cells, pool 1 (3 donors), resting (IL-2 0 ng/mL); assay: as above; conditions: 72 h
[22] = test system: YT (IL-2 2.5 ng/mL); assay: as above; conditions: 72 h
[23] = test system: normal primary NK cells, pool 1 (3 donors) (IL-2 2.5 ng/mL); assay: as above; conditions: 72 h
[24] = test system: KAI3 (IL-2 2.5 ng/mL); assay: as above; conditions: 72 h
[25] = test system: normal primary NK cells, pool 3 (3 donors) (IL-2 2.5 ng/mL); assay: as above; conditions: 72 h
[26] = test system: NK-92 (IL-2 2.5 ng/mL); assay: as above; conditions: 72 h
[27] = test system: NKL (IL-2 2.5 ng/mL); assay: as above; conditions: 72 h
[28] = test system: normal NK cells expanded with K562-aAPC; assay: percent inhibition of viability; higher = more inhibition; conditions: 72 h, IL-2 2.5 ng/mL
Protocol: as §1

O=c1cc(N2CCOCC2)oc2c(-c3ccccc3)cccc12 (max concentration tested 100000 nM)
percent inhibition of viability [%]
Conditions | 10 nM | 100 nM | 1000 nM | 10000 nM | 100000 nM
[1] | 0.77 | -1.71 | 9.97 | 64.1 | 97.4
[2] | -1.25 | -1.33 | 4.59 | 30.1 | 89.5
[3] | -8.94 | -2.33 | 8.53 | 41.1 | 95.9
[4] | 3.19 | 3.24 | 18.5 | 59.4 | 92.6
[5] | -4.69 | -3.69 | 1.75 | 45.5 | 83.3
[6] | -0.85 | -3.31 | -2.01 | -5.98 | 86.2
[7] | -0.68 | 6.88 | 14.6 | 52.6 | 92.9
[8] | 1.36 | 2.44 | 6.09 | 37.3 | 68.7
[9] | -1.05 | 3.02 | 7.28 | 35.5 | 97.6
[10] | -1.02 | -1.63 | 6.02 | 25.9 | 59.6
[11] | -5.94 | -9.6 | -2.64 | 20.7 | 96.5
[12] | -5.7 | -3.95 | -4.94 | 24 | 64.1
[13] | -14.3 | -15.8 | 3.05 | 55.1 | 69.6
[28] | -2.73 | -3.41 | 4.76 | 39.4 | 94.5

Conditions | drug sensitivity score
[14] | 9.96
[15] | 13.6
[16] | 8.95
[17] | 10.1
[18] | 13.6
[19] | 10.1
[20] | 4.34
[21] | 12.2
[22] | 8.24
[23] | 9.7
[24] | 6.11
[25] | 8.63
[26] | 6.84
[27] | 10.7

CN(C)C/C=C/C(=O)Nc1cc2c(Nc3ccc(F)c(Cl)c3)ncnc2cc1O[C@H]1CCOC1 [Afatinib] (max concentration tested 1000 nM)
percent inhibition of viability [%]
Conditions | 0.1 nM | 1 nM | 10 nM | 100 nM | 1000 nM
[1] | 1.24 | -0.84 | 3.12 | 3.53 | 40.4
[2] | 1.25 | 0.47 | 0.09 | 5.88 | 8.01
[3] | -9.45 | -8.4 | 7.17 | -5.73 | 18.4
[4] | 5.26 | 23.4 | 23.4 | 27.9 | -1.27
[5] | -6.74 | -1.03 | -0.59 | 1.9 | 17.9
[6] | -4.64 | 0.23 | 3.73 | 0.77 | -7.53
[7] | 1.52 | -21.3 | -1.76 | -18.2 | 31.8
[8] | 0.42 | 0.78 | 2.66 | 5.09 | 29.2
[9] | 0.9 | -20.4 | -8.14 | -16.9 | 17.6
[10] | -6.04 | -6.37 | -2.67 | -0.11 | 17.7
[11] | -7.17 | -9.3 | 9.58 | -8.16 | 3.09
[12] | -4.74 | -8.88 | -4.7 | 6.1 | 20
[13] | 4.2 | 5.29 | 8.09 | 15.9 | 30.1
[28] | -3.84 | -0.9 | 0.35 | 8.86 | 23.9

Conditions | drug sensitivity score
[14] | 1.97
[15] | 2.57
[16] | 0
[17] | 0.29
[18] | 0
[19] | 0.66
[20] | 0
[21] | 0.88
[22] | 2.06
[23] | 0.16
[24] | 0.41
[25] | 0
[26] | 1.32
[27] | 3.07

CC[C@@H]1C(=O)OC[C@@H]1Cc1cncn1C [Pilocarpine] (max concentration tested 40000 nM)
percent inhibition of viability [%]
Conditions | 4 nM | 40 nM | 400 nM | 4000 nM | 40000 nM
[1] | 1.42 | -1.75 | 0.14 | 2.27 | -9.94
[2] | -5.1 | 0.26 | 0.29 | 8.1 | 13.5
[3] | -4.81 | -4.05 | -0.5 | 4.72 | -5.35
[4] | 7.63 | 1.2 | 25.3 | 7.63 | 17.4
[5] | -0.26 | 2 | 1.94 | 9.78 | 16
[6] | 0.9 | 2.74 | 3.37 | 7.24 | 10.8
[7] | 2.62 | 11.3 | -11.4 | 2.11 | -5.32
[8] | 0.63 | -1.77 | 4.55 | 7.37 | 12.4
[9] | -1.79 | 4.63 | -1.46 | 6 | 3.9
[10] | -4.19 | -2.59 | -0.69 | 0.97 | 10.8
[11] | -10.7 | -14.3 | -6.23 | 1.83 | -3.82
[12] | -3.6 | -6.46 | -0.49 | 3.22 | 17.6
[13] | 0.76 | -2.78 | 1.71 | 1.49 | 4.41
[28] | -3.76 | -0.92 | 0.04 | 4.29 | 9.84

Conditions | drug sensitivity score
[14] | 0
[15] | 0
[16] | 0.51
[17] | 0
[18] | 0
[19] | 0.76
[20] | 0
[21] | 0
[22] | 0.14
[23] | 0
[24] | 0.01
[25] | 0
[26] | 0.79
[27] | 0
